Laboratory results: patent US20120010075A1 (priority 2009, published 2012)
Where two headings read alike, the source gives them in different places.

Assays:
[1] = tested on: Leptosphaeria nodorum (LEPTNO); experiment: In vitro fungitoxicity of hydrazones with and without copper towards Leptosphaeria nodorum (Example 26); assay type: cell-based; conditions: 72 h at 25° C.; for inhibition of growth at 0.05 µg/mL: Parastagonospora nodorum, 72 h, read-out: LEPTNO % Inhn. Minus Copper Observed
Phytophthora infestans = assay type: in vivo, Phytophthora infestans on tomato; conditions: applied 24 h before inoculation, assessed 7 days after inoculation
[2] = copper-minus medium, test compound Concn. 0.05 μg/mL
[3] = copper-plus medium (CuCl2 10 μM), test compound Concn. 0.05 μg/mL
[4] = hydrazone 50 ppm with 50 μM CuCl2.2H2O, tomato late blight
[5] = compound 0.05 μg/mL, copper-minus medium
[6] = compound 0.05 μg/mL, copper-plus medium (CuCl2.2H2O)
[7] = hydrazone 50 ppm + 50 μM CuCl2.2H2O, tomato

Structure (SMILES)	inhibition of growth at 0.05 µg/mL [1, 2] [%]	LEPTNO % Inhn. Plus Copper Observed [1, 3] [%]	melting point [°C]	TLB % Control (Phytophthora infestans; [4]) [%]	inhibition of growth at 0.05 µg/mL [1, 5] [%]	LEPTNO % Inhn. Plus Copper Observed [1, 6] [%]	TLB % Control (Phytophthora infestans; [7]) [%]	LEPTNO % Inhn. Minus Copper Observed [1, 5] [%]
O=C(N/N=C/c1cc(Cl)cc(C(F)(F)F)c1O)c1ccc([N+](=O)[O-])cc1 [Example 383]	20.3	95.7	245 to 247	100.0				
Cc1ccc(C(=O)N/N=C/c2cc(C(F)(F)F)cc(Cl)c2O)cc1 [Example 322]	20.9	97.9	269 to 271	95.0				
O=C(N/N=C/c1cc(Cl)cc(Cl)c1O)c1cc2ccccc2cc1O [Example 563]	20.6	96.9	287 to 292	70.0				
C/C(=N\NC(=O)c1ccccc1[N+](=O)[O-])c1cc(Cl)cc(Cl)c1O [Example 142]			250 to 253		1.1	98.2	79.0	
COc1ccc(C(=O)N/N=C/c2cc(Cl)cc(Cl)c2O)c(O)c1 [Example 486]	12.8	96.6	267 to 269	95.0				
C/C(=N\NC(=O)c1ccccc1O)c1ccc(Cl)cc1O [Example 463]	5.1	96.3	311 to 312	61.0				
O=C(N/N=C/c1c(O)cc(C(F)(F)F)cc1C(F)(F)F)c1ccccc1 [Example 276]			144 to 193		5.5	97.8	71.2	
Cc1ccc(C(=O)N/N=C/c2cc(C(F)(F)F)cc(C(F)(F)F)c2O)c(O)c1 [Example 342]	9.1	98.3	251 to 254	86.0				
Cc1ccc(C(=O)N/N=C/c2cc(Cl)cc(Cl)c2O)c(C)c1 [Example 27]			246 to 247		16.5	97.9	43.3	
Cc1cc(C)cc(C(=O)N/N=C/c2cc([N+](=O)[O-])cc(Br)c2O)c1 [Example 208]			283 to 300		5.4	97.0	32.8	
COc1cccc(C(=O)N/N=C(\C)c2cc(Cl)cc(Cl)c2O)c1O [Example 484]	12.6	93.2	258 to 259	88.0				
O=C(N/N=C/c1cc(Cl)cc(Cl)c1O)c1ccc2ccccc2c1 [Example 92]			215 to 217		1.9	98.2	71.9	
COc1cccc(C(=O)N/N=C/c2cc(Cl)cc(Br)c2O)c1C [Example 132]			187 to 189		9.1	97.7	65.5	
Cc1cccc(C(=O)N/N=C/c2cc(C(F)(F)F)cc(Cl)c2O)c1 [Example 321]	11.7	96.6	204 to 206	100.0				
C/C(=N\NC(=O)c1ccccc1C)c1cc(F)cc(F)c1O [Example 573]	2.4	98.4	186 to 188	93.0				
Cc1ccc(O)c(/C=N/NC(=O)c2ccccc2)c1 [Example 235]			192 to 193		0	96.3	80.0	
Cc1ccc(C(=O)N/N=C(\CCc2ccccc2)c2ccccc2O)c(C)c1 [Example 35]			162 to 166			96.5	0.0	3.8
COc1ccc(O)c(C(=O)N/N=C(\C)c2cc(Cl)cc(Cl)c2O)c1 [Example 478]	0.7	94.7	327 to 331	65.0				
C/C(=N\NC(=O)c1ccccc1)c1cc(C(F)(F)F)ccc1O [Example 527]	7.6	97.6	226 to 229	78.0				
C/C(=N\NC(=O)c1ccccc1C(F)(F)F)c1ccccc1O [Example 58]			208 to 210		0	95.0	49.0	

Structure (SMILES)	inhibition of growth at 0.05 µg/mL [1, 2] [%]	LEPTNO % Inhn. Plus Copper Observed [1, 3] [%]	melting point [°C]	TLB % Control (Phytophthora infestans; [4]) [%]	inhibition of growth at 0.05 µg/mL [1, 5] [%]	LEPTNO % Inhn. Plus Copper Observed [1, 6] [%]	TLB % Control (Phytophthora infestans; [7]) [%]	LEPTNO % Inhn. Minus Copper Observed [1, 5] [%]
O=C(N/N=C/c1cc(C(F)(F)F)cc(Cl)c1O)c1ccc(F)cc1 [Example 324]	2.3	96.3	200 to 202	98.0				
O=C(N/N=C/c1ccc(Cl)cc1O)c1ccccc1C(F)(F)F [Example 396]	0	95.5	197 to 200	49.0				
O=C(N/N=C/c1cc(Cl)cc(Cl)c1O)c1cccc(C(F)(F)F)c1 [Example 249]			165 to 169		27.8	95.8	100.0	
COc1ccc(/C(C)=N/NC(=O)c2cccc(Cl)c2)c(O)c1 [Example 285]			212 to 214		3.4	97.5	51.0	
O=C(N/N=C/c1cc(Br)cc(Br)c1O)c1ccc2ccccc2c1 [Example 111]			237 to 239		16.8	97.4	63.6	
COc1ccc(C(=O)N/N=C(\C)c2ccc(OC)c(OC)c2O)cc1 [Example 558]	3.8	95.7	230 to 232	80.0				
O=C(N/N=C/c1ccc(Cl)c(Cl)c1O)c1cccc(F)c1 [Example 356]	18.6	98.0	215 to 218	93.0				
C/C(=N\NC(=O)c1ccccc1C)c1cccc(Cl)c1O [Example 493]	0	97.8	193 to 198	95.0				
Cc1ccc(C(=O)N/N=C/c2cccc(Cl)c2O)c(O)c1 [Example 433]	10.8	97.8	258 to 266	100.0				
C/C(=N\NC(=O)c1ccc(Br)cc1)c1cccc(Cl)c1O [Example 500]	9.2	93.2	226 to 232	80.0				
C/C(=N\NC(=O)c1ccc(C(F)(F)F)cc1)c1cc(C(F)(F)F)ccc1O [Example 536]	21.1	93.4	228 to 234	24.0				
C/C(=N\NC(=O)c1ccccc1Cl)c1cccc([N+](=O)[O-])c1O [Example 272]			196 to 205		2	98.1	37.0	
CCOc1ccc(C(=O)N/N=C/c2cc(Cl)cc(Cl)c2O)cc1 [Example 97]			279 to 281		18.2	98.3	76.3	
O=C(N/N=C/c1cc(C(F)(F)F)cc(Cl)c1O)c1cccc(F)c1 [Example 323]	16.1	98.1	210 to 212	100.0				
C/C(=N\NC(=O)c1ccc(Cl)cc1)c1cc(C)ccc1O [Example 317]	16.3	97.9	203 to 210	24.0				
O=C(N/N=C/c1cc(Cl)cc(Br)c1O)c1ccc(OC(F)(F)F)cc1 [Example 106]			210 to 220		0	94.6	88.7	
Cc1cccc(C(=O)N/N=C/c2cc(Cl)cc(C(F)(F)F)c2O)c1 [Example 376]	13.6	96.5	199 to 201	98.0				
O=C(N/N=C/c1c(O)cccc1Cl)c1cccc(F)c1 [Example 400]	0.5	97.9	257 to 259	96.0				
O=C(N/N=C/c1c(O)cccc1Cl)c1ccccc1O [Example 406]	6.7	96.1	277 to 280	98.0				
O=C(N/N=C/c1ccc(Cl)c(Cl)c1O)c1ccc([N+](=O)[O-])cc1 [Example 361]	3.3	96.4	237 to 243	97.0				
